Laboratory results taken from ChEMBL document CHEMBL1151339, “Antitumor agents from bohemic acid complex, III. The isolation of marcellomycin, musettamycin, rudolphomycin, mimimycin, collinemycin, alcindoromycin, and bohemamine” (J Nat Prod, 1980).
≈ marks a conversion by molar mass, not a printed value.

Experiments:
[1] = test system: B16; experiment: Antitumor activity against mouse B16 cells xenografted in BDF1 mouse assessed as median survival time at 3.2 mg/kg; assay type: functional
[2] = test system: Streptococcus pyogenes; experiment: Antibacterial activity against Streptococcus pyogenes A-9604 by 2-fold tube dilution method; assay type: functional
[3] = test system: Escherichia coli; experiment: Antibacterial activity against Escherichia coli A15119 by 2-fold tube dilution method; assay type: functional
[4] = test system: Escherichia coli; experiment: Antibacterial activity against Escherichia coli A20341-1 by 2-fold tube dilution method; assay type: functional
[5] = test system: Proteus mirabilis; experiment: Antibacterial activity against Proteus mirabilis A-9900 by 2-fold tube dilution method; assay type: functional
[6] = test system: Candida tropicalis; experiment: Antifungal activity against Candida tropicalis A15051 by 2-fold tube dilution method; assay type: functional
[7] = test system: Pichia kudriavzevii; experiment: Antifungal activity against Candida krusei A15052 by 2-fold tube dilution method; assay type: functional
[8] = test system: L1210; experiment: Antitumor activity against mouse L1210 cells xenografted in BDF1 mouse assessed as median survival time at 1.6 mg/kg, ip; assay type: functional; settings: route intraperitoneal
[9] = test system: L1210; experiment: Antitumor activity against mouse L1210 cells xenografted in BDF1 mouse assessed as change in tumor average weight at 3.2 mg/kg, ip; assay type: functional; settings: route intraperitoneal
[10] = test system: L1210; experiment: Antitumor activity against mouse L1210 cells xenografted in BDF1 mouse assessed as change in tumor average weight at 1.6 mg/kg, ip; assay type: functional; settings: route intraperitoneal
[11] = test system: L1210; experiment: Antitumor activity against mouse L1210 cells xenografted in BDF1 mouse assessed as change in tumor average weight at 0.4 mg/kg, ip; assay type: functional; settings: route intraperitoneal
[12] = test system: Mus musculus; experiment: Toxicity in BDF1 mouse xenografted with mouse B16 cells assessed as survival at 0.1 mg/kg after 5 days; assay type: organism-based; set-up: dose 0.1 mg/kg
[13] = test system: B16; experiment: Antitumor activity against mouse B16 cells xenografted in BDF1 mouse at 0.025 mg/kg relative to control; assay type: functional
[14] = test system: B16; experiment: Antitumor activity against mouse B16 cells xenografted in BDF1 mouse assessed as change in tumor average weight at 3.2 mg/kg; assay type: functional
[15] = test system: Mus musculus; experiment: Toxicity in BDF1 mouse xenografted with mouse B16 cells assessed as survival at 1.6 mg/kg after 5 days; assay type: organism-based; set-up: dose 1.6 mg/kg
[16] = test system: Mus musculus; experiment: Toxicity in BDF1 mouse xenografted with mouse B16 cells assessed as survival at 0.4 mg/kg after 5 days; assay type: organism-based; set-up: dose 0.4 mg/kg

CC[C@@]1(O)C[C@H](O[C@H]2C[C@H](N(C)C)[C@H](O[C@H]3C[C@H](O)[C@H](O[C@@H]4O[C@@H](C)C(=O)C=C4N)[C@@H](C)O3)[C@@H](C)O2)c2c(cc3c(c2O)C(=O)c2c(O)ccc(O)c2C3=O)[C@H]1C(=O)OC [RUDOLPHOMYCIN]
Activity [1]: 23 days
MIC [2]: 0.25 µg/mL (≈ 0.297 µM)
MIC [3]: > 125 µg/mL
MIC [4]: > 125 µg/mL
MIC [5]: > 125 µg/mL
MIC [6]: > 16 µg/mL
MIC [7]: > 16 µg/mL
Activity [8]: 10 days
Activity [9]: -2.2 g
Activity [10]: -1.2 g
Activity [11]: 0.9 g
AC50 [12]: Non-toxic
T/C [13]: 113%
Activity [14]: -0.3 g
AC50 [15]: Non-toxic
AC50 [16]: Non-toxic
